Experimental data as given in patent publication US11654135B2, “Methods for treating colon cancer with compositions comprising amlexanox and immune checkpoint inhibitors” (MOONSHOT PHARMA LLC, priority 2017, dated 2023).

Test system: MC38 tumor cells
Test: Example 2: MC38 subcutaneous tumor model with amlexanox and checkpoint inhibitors, tumor volume by caliper
Assay type: in vivo, C57BL/6 mice
Settings: for Mean tumor volume: MC38 s.c., C57BL/6, i.p.: NMDI14 5, PTC124 20, amlexanox 20 (with antibodies) or 10 (alone) mg/kg QD, antibodies 10 mg/kg BIW, 3 weeks; for Mean % Inhibition, Tumor Volume MC38: (mean(C) − mean(T))/mean(C) * 100%, negative values indicate an increase in tumor volume
Procedure: Animals and cell cultures were maintained as described in Example 1. C57BL/6 mice were inoculated subcutaneously at the right lower flank region with MC38 tumor cells (1×10^6) in 0.1 mL of PBS for tumor development. The treatments were started when the mean tumor size reaches approximately 50 mm^3. The date of tumor cell inoculation was denoted as day 0. All the compounds were administered i.p.
After tumor cell inoculation, the animals were checked daily for morbidity and mortality as well as any effects of tumor growth and treatments on normal behavior such as mobility, visual estimation of food and water consumption, body weight gain/loss, eye/hair matting and any other abnormal effect. Tumor volumes were measured twice weekly at least in two dimensions using a caliper, and the volume expressed in mm3 using the formula: V=0.5 a×b2 where a and b are the long and short diameters of the tumor, respectively. Mean tumor volume for each treatment group over the course of the study is shown in Table 9, and the percent inhibition of tumor volume is shown in Table 10.

Compound: CC(C)c1ccc2oc3nc(N)c(C(=O)O)cc3c(=O)c2c1 [amlexanox, 2-amino-7-isopropyl-5-oxo-5H-chromeno[2,3-b]pyridine-3-carboxylic acid]
- Mean tumor volume (Day 7): 17.22 mm3
- Mean tumor volume (Day 11): 145.47 mm3
- Mean tumor volume (Day 14): 286.64 mm3
- Mean tumor volume (Day 18): 982.03 mm3
- Mean tumor volume (Day 21): 1830.00 mm3
- Mean tumor volume (Day 25): 2816.94 mm3
- Mean tumor volume (Day 26 (so in the source)): 3301.20 mm3
- Mean % Inhibition, Tumor Volume MC38 (Study day 7 (Mar. 17, 2017)): −45.19%
- Mean % Inhibition, Tumor Volume MC38 (Study day 11 (Mar. 21, 2017)): −29.51%
- Mean % Inhibition, Tumor Volume MC38 (Study day 14 (Mar. 24, 2017)): −39.15%
- Mean % Inhibition, Tumor Volume MC38 (Study day 18 (Mar. 28, 2017)): −44.97%
- Mean % Inhibition, Tumor Volume MC38 (Study day 21 (Mar. 31, 2017)): −63.00%
- Mean % Inhibition, Tumor Volume MC38 (Study day 25 (Apr. 4, 2017)): −42.11%
- Mean % Inhibition, Tumor Volume MC38 (Study day 28 (Apr. 7, 2017)): −104.74%
